Results from PubChem BioAssay AID588633 (Johns Hopkins Ion Channel Center, 2011).
Active and inactive are the calls of the source.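 The calls were made as follows: active = TRPV1 channel activation above 50%; inactive = activation of 50% or less.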

Biological target: Transient receptor potential cation channel subfamily V member 1 (Homo sapiens) (UniProt Q8NER1)
Test: TRPV1 channel agonists by patch clamp, confirmation, automated patch clamp, HEK293 cells (AID 588633)
Details: TRPV1-HEK293, automated patch clamp current; at 10 µM; hits give high values

Sequence of Transient receptor potential cation channel subfamily V member 1 (Homo sapiens) (Q8NER1 whole entry, looked up): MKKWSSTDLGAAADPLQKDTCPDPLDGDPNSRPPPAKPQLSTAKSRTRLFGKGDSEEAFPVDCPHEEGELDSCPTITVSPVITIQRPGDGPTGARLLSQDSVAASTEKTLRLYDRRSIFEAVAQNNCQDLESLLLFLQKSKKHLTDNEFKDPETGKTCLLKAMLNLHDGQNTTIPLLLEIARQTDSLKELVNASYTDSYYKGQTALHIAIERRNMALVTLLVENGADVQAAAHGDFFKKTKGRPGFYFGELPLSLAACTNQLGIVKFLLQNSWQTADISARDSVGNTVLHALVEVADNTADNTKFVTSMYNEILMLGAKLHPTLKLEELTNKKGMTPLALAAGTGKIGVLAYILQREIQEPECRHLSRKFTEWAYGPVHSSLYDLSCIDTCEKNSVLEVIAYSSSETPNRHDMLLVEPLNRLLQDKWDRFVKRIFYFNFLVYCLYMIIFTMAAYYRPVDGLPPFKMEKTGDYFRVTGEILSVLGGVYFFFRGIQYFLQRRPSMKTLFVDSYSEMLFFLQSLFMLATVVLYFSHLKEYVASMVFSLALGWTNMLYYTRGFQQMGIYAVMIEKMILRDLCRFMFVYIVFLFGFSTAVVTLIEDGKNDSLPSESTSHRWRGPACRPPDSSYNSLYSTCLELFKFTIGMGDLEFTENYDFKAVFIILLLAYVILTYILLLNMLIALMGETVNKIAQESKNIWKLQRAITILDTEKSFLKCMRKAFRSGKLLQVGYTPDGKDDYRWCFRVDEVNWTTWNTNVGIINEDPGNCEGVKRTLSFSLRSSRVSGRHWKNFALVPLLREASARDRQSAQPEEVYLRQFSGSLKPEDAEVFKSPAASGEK

For `Cc1ccc(C(=O)Nc2ccc(SC(F)F)cc2)s1`, which activation is on record?
The activation was 54.6%.

For `CC(C)c1ccc(NC2CCCN(C(=O)c3ccco3)C2)cc1` (centres undefined), which activation is on record?
Its activation is 387%.

`CC(C)c1ccc(NCCC(=O)c2cccs2)cc1` was tested. Which activation did it give?
Its activation is 57.6%.

For `O=C(Nc1ccccc1)c1cc(-c2ccccc2Cl)no1`, which activation is on record?
Its activation is 40.5% (inactive).

`CC(=O)c1ccc(Nc2ncnc3c2oc2ccccc23)cc1` was tested. Which activation did it give?
The activation was 69.7%.

`O=C(Nc1ccc(N2CCCCCC2)cc1)c1cccc(S(=O)(=O)N2CCOCC2)c1` was tested. Which activation did it give?
Its activation is 197%.

With `Cc1ccc(Nc2nc(C)nc3c2oc2ccccc23)cc1` as the compound, how does the activation read?
Its activation is 317%.

With `COc1ccc(NC2c3ccccc3C(=O)N2Cc2ccc3c(c2)OCO3)cc1` (centres undefined) as the compound, how does the activation read?
The activation was 330%.

How did the activation turn out when `Cc1ccc(N2CCN(C(=O)N3CCOCC3)CC2)c(C)c1` was run?
Its activation is 33.5% (inactive).

For `CCN(CCNC(=O)c1ccc(C#N)cc1)c1cccc(C)c1`, which activation is on record?
Its activation is 427%.

With `CC(C)(C)c1ccc(C(=O)Nc2ccc(S(N)(=O)=O)cc2)cc1` as the compound, how does the activation read?
The activation was 378%.

For `O=C(c1cc(-c2ccc(Cl)cc2Cl)on1)N1CCOCC1`, which activation is on record?
The activation was 334%.

`O=C(/C=C\c1cn(-c2ccccc2)nc1-c1ccc2c(c1)OCCO2)N1CCOCC1` was tested. Which activation did it give?
Its activation is 226%.

`Cc1cccn2c(=O)c3cc(C(=O)NCC4CCCO4)c(=N)n(Cc4ccc(F)cc4)c3nc12` (centres undefined) was tested. Which activation did it give?
The activation was 229%.

`Cc1cc(C(=O)NCCC2=CCCCC2)ccc1[N+](=O)[O-]` was tested. Which activation did it give?
Its activation is 369%.

Which activation does the source give for `COCCNC(=O)CCc1c(C)nc2c(c(C)nn2-c2ccc(C)cc2)c1C` here?
Its activation is 197%.

Which activation does the source give for `CC(C)(C)c1ccc(/C=C/C(=O)Nc2ccncc2)cc1` here?
The activation was 69.2%.

How did the activation turn out when `Oc1ccccc1N=Cc1c(O)ccc2ccccc12` was run?
Its activation is 10.6% (inactive).

With `CCOC(=O)[C@H]1[C@H]2COc3ccc(Cl)cc3[C@@H]2N2C(=O)c3ccc(C)cc3NC(=O)[C@@]12C` as the compound, how does the activation read?
The activation was 34% (inactive).

How did the activation turn out when `Cc1ccc(NC(=O)c2cc3c(s2)CCCC3)cc1` was run?
Its activation is 402%.

For `CCC(C)(C)c1ccc(OCC(=O)Nc2ccncc2)cc1`, which activation is on record?
The activation was 440%.

With `Cc1cc2c(NC(=O)Nc3ccc(C(C)(C)C)cc3)cccc2nn1` as the compound, how does the activation read?
Its activation is 200%.

With `Cc1ccc(Nc2ncnc3c2oc2ccccc23)cc1` as the compound, how does the activation read?
The activation was 200%.

With `CC1CCN(C(=O)/C=C/c2ccc(C(C)(C)C)cc2)CC1` as the compound, how does the activation read?
Its activation is 12.5% (inactive).

How did the activation turn out when `Cc1cc2oc(C(=O)Nc3cccnc3)c(C)c2cc1C` was run?
Its activation is 6.35% (inactive).

With `CCc1nc(Nc2ccccc2)c2oc3ccccc3c2n1` as the compound, how does the activation read?
The activation was 128%.

Which activation does the source give for `Cc1ccc(Cn2nc(C(=O)Nc3ccc(Br)cc3)cc2C)cc1` here?
Its activation is 26.9% (inactive).

With `O=C(C1=NOC(CNc2ncc(C(F)(F)F)cc2Cl)C1)N1CCOCC1` (centres undefined) as the compound, how does the activation read?
Its activation is 157%.

With `CCc1nc(Nc2ccc3c(c2)OCCO3)c2oc3ccccc3c2n1` as the compound, how does the activation read?
The activation was 111%.

With `COc1ccc(C(=O)Nc2ccc(C3=NNC(=O)CC3C)cc2NC(=O)c2ccc(OC)cc2)cc1` (centres undefined) as the compound, how does the activation read?
The activation was 51.6%.

How did the activation turn out when `O=C(Nc1cccc([N+](=O)[O-])c1)c1ccc(-c2ccccc2)cc1` was run?
The activation was 5.26% (inactive).

Which activation does the source give for `CCc1ccc(/C=C2\SC(N3CCOCC3)=NC2=O)cc1` here?
Its activation is 199%.

Which activation does the source give for `CCCn1c(SC(C)C(=O)N2CCOCC2)nc2ccc(Br)cc2c1=O` (centres undefined) here?
Its activation is 253%.

With `CCCOc1ccc(/C=C/C(=O)N2CCOCC2)cc1` as the compound, how does the activation read?
The activation was 338%.

With `COc1ccc(NC(=O)CCCSc2nc(-c3ccco3)cc(C(F)(F)F)n2)cc1OC` as the compound, how does the activation read?
Its activation is 406%.

How did the activation turn out when `CC1CCCN(c2ccc(C(=O)Nc3cccnc3)cc2[N+](=O)[O-])C1` (centres undefined) was run?
The activation was 467%.

For `CC(C)(C)c1ccc(C(=O)Nc2ccc3c(c2)C(=O)NC3=O)cc1`, which activation is on record?
The activation was 3.59% (inactive).

How did the activation turn out when `CC(C)(C)c1ccc(/C=C/C(=O)Nc2cccnc2)cc1` was run?
The activation was 131%.

How did the activation turn out when `O=C(Nc1cccnc1)c1ccc(-c2ccccc2)cc1` was run?
Its activation is 67%.

For `CC(C)(C)c1ccc(NC(=O)c2ccsc2)cc1`, which activation is on record?
The activation was 199%.

With `CCCCCCC1CCC(C(=O)N2CCOCC2)CC1` (centres undefined) as the compound, how does the activation read?
Its activation is 17.2% (inactive).

For `O=C(COC(=O)C12CC3CC(CC(C3)C1)C2)Nc1ccc2[nH]c(=O)[nH]c2c1`, which activation is on record?
The activation was 34.9% (inactive).

How did the activation turn out when `CCCCCCCCC(=O)NCc1ccc(O)c(OC)c1` was run?
Its activation is 43.2% (inactive).

With `Cc1nc(Nc2cccc(Cl)c2)c2oc3ccccc3c2n1` as the compound, how does the activation read?
The activation was 34.8% (inactive).

With `CCN(c1ccc(NC(=O)c2ccc(Cl)nc2)cc1)C(C)C` as the compound, how does the activation read?
The activation was 291%.

Which activation does the source give for `Cc1ccc2nc(-c3ccccn3)cc(C(=O)Nc3ccc4c(c3)OCO4)c2c1` here?
Its activation is 1.55% (inactive).

`CC(C)(C)c1ccc(/C=N/OCC(=O)NCc2ccc(F)cc2)cc1` was tested. Which activation did it give?
The activation was 9.95% (inactive).

Which activation does the source give for `CC(=O)Nc1ccc(N=Cc2c(O)ccc3ccccc23)cc1` here?
The activation was 30% (inactive).

How did the activation turn out when `CC(C)(C)c1ccc(/C=C/C(=O)N2CCCCC2)cc1` was run?
Its activation is 420%.

How did the activation turn out when `Cc1cc(C(=O)N/N=C/c2cccc([N+](=O)[O-])c2)c(C)n1-c1ccccc1` was run?
Its activation is 76.2%.

How did the activation turn out when `O=C(Nc1ccc(C(F)(F)F)cc1)c1ccc2ncsc2c1` was run?
Its activation is 145%.

For `O=C(NCc1cccnc1)C1CCC(c2ccc(Cl)cc2)CC1` (centres undefined), which activation is on record?
Its activation is 196%.

Which activation does the source give for `CC(C)CCSc1nc(N2CCOCC2)c2c(c1C#N)CC(C)(C)OC2` here?
The activation was 93.7%.

`CC(C)c1ccc(/C=C/C(=O)N2CCOCC2)cc1` was tested. Which activation did it give?
Its activation is 242%.

With `CCC(C)Sc1cccc(-c2nc3ccc(Cl)cn3c2NCc2ccccc2)c1` (centres undefined) as the compound, how does the activation read?
The activation was 10.9% (inactive).

`Cc1nc(Nc2cccc(F)c2)c2oc3ccccc3c2n1` was tested. Which activation did it give?
Its activation is 58.3%.

`CC(C)c1ccc(CNNC(=O)c2ccccc2)cc1` was tested. Which activation did it give?
The activation was 156%.

How did the activation turn out when `CCOC(=O)c1sc(-c2ccccc2)cc1NC(=O)Nc1ccccc1` was run?
Its activation is 43.2% (inactive).

How did the activation turn out when `CC(C)c1ccc(NC(=O)N2CCC(c3nc4ccccc4o3)CC2)cc1` was run?
The activation was 135%.

`CCC(C)Sc1ccc(-c2nc3ccc(C)cn3c2NCc2ccccc2)cc1OC` (centres undefined) was tested. Which activation did it give?
The activation was 27.4% (inactive).

How did the activation turn out when `COc1cccc(/C=N/n2c(SC)nnc2-c2ccccc2)c1O` was run?
The activation was 173%.

For `COc1ccc(Nc2ncnc3c2oc2ccccc23)cc1`, which activation is on record?
Its activation is 48.6% (inactive).

How did the activation turn out when `CC(C)(C)c1ccc(OCCNC(=O)Cc2ccc(F)cc2)cc1` was run?
The activation was 39.6% (inactive).

How did the activation turn out when `Cc1ccc(S(=O)(=O)Cc2ccc(C(=O)NCCc3ccccc3)o2)cc1` was run?
Its activation is 50.9%.

`COC(=O)c1[nH]c2ccc(C)cc2c1NC(=O)CN1CCCC(C)(C)C1` was tested. Which activation did it give?
The activation was 61.2%.

For `COc1ccc(Nc2nc(C)nc3c2oc2ccccc23)cc1`, which activation is on record?
The activation was 419%.

Which activation does the source give for `COc1ccc(Cn2nc(-c3ccccc3)c(N3CCCCC3)cc2=O)cc1` here?
The activation was 143%.

For `CC(=O)c1ccc(N2CCN(C(=O)Nc3ccc(Cl)cc3)CC2)cc1`, which activation is on record?
Its activation is 6.07% (inactive).

With `CC(C)(C)c1ccc2c(c1)OC(C(=O)N/N=C\c1ccncc1)CO2` (centres undefined) as the compound, how does the activation read?
Its activation is 182%.

How did the activation turn out when `CC(C)(C)c1cc(CCC(=O)NCc2ccncc2)cc(C(C)(C)C)c1O` was run?
Its activation is 265%.

With `CCc1ccc(NC(=O)Nc2ccc3c(c2)N(C)C(=O)CS3)cc1` as the compound, how does the activation read?
Its activation is 28.7% (inactive).

How did the activation turn out when `CCc1ccc2oc(C(=O)Nc3cccnc3)c(C)c2c1` was run?
Its activation is 4.84% (inactive).

Which activation does the source give for `Cc1ccc(/C=N/Nc2nc(N3CCCCC3)nc(N3CCCCC3)n2)o1` here?
Its activation is 148%.

How did the activation turn out when `COc1ccc(CNC(=S)NCc2ccc(Cl)cc2)cc1OC` was run?
The activation was 272%.

Which activation does the source give for `O=C(NCc1ccccc1)[C@@H]1C[C@H]1[C@@H](NP(=O)(c1ccccc1)c1ccccc1)c1ccccc1` here?
Its activation is 97.1%.

How did the activation turn out when `O=C(NCCCc1ccccc1)c1ccc(F)cc1` was run?
Its activation is -2.6% (inactive).

`CC(=O)c1ccc(N2CCN(C(=O)Nc3ccc(C(C)C)cc3)CC2)cc1` was tested. Which activation did it give?
The activation was 316%.

How did the activation turn out when `Cc1ncsc1CCC(=O)N1CCCC(Nc2ccc(C(C)C)cc2)C1` (centres undefined) was run?
The activation was 335%.

Which activation does the source give for `Cc1ccc(C2=NN(C)c3nc4ccccc4n3C2)cc1` here?
Its activation is 105%.

Which activation does the source give for `CC(C)(C)OC(=O)CNC(=O)c1[nH]cnc1C(=O)N[C@@H](Cc1ccccc1)C(=O)OC(C)(C)C` here?
Its activation is 28.7% (inactive).

For `Cc1cnc(NC(=O)c2cc3c(s2)CCCC3)s1`, which activation is on record?
Its activation is 32.4% (inactive).

`CCC(C)Sc1cccc(-c2nc3cc(C)ccn3c2NCc2ccccc2)c1` (centres undefined) was tested. Which activation did it give?
Its activation is 63.1%.

`CC(=O)c1ccc(NC(=O)N2CCN(c3ccc(C)cc3)C(C)C2)cc1` (centres undefined) was tested. Which activation did it give?
Its activation is 155%.

`O=C(C1=C[C@@H](c2ccccc2)C[C@@H](OCc2ccc(CO)cc2)O1)N1CCCCCCC1` was tested. Which activation did it give?
The activation was 323%.

With `O=C(CCc1ccccc1)N1CCCC(Nc2ccc(F)cc2)C1` (centres undefined) as the compound, how does the activation read?
Its activation is 585%.

`CC(OC(=O)CC1CCCCC1)C(=O)Nc1ccc(F)cc1` (centres undefined) was tested. Which activation did it give?
Its activation is 77.3%.

How did the activation turn out when `CCN(CC)S(=O)(=O)c1ccc(/C=C/C(=O)Nc2ccc(N3CCOCC3)cc2)cc1` was run?
Its activation is 27.1% (inactive).

For `CC(C)(C)c1ccc(NC(=O)N2CCCN(c3ccc([N+](=O)[O-])cn3)CC2)cc1`, which activation is on record?
Its activation is 287%.

For `CCCCCC1CCC(C(=O)N2CCOCC2)CC1` (centres undefined), which activation is on record?
Its activation is 57%.

For `NS(=O)(=O)c1ccc(NC(=O)c2ccc3c(c2)CCCC3)cc1`, which activation is on record?
Its activation is 23.2% (inactive).

`O=C(/C=C\c1cn(-c2ccccc2)nc1-c1cccs1)N1CCOCC1` was tested. Which activation did it give?
The activation was 272%.

How did the activation turn out when `CCCSc1ccc(-c2nn(-c3ccccc3)cc2/C=C(/C#N)C(=O)N2CCOCC2)cc1` was run?
Its activation is 23.7% (inactive).

For `CS(=O)(=O)N1CCc2cc(C(=O)Nc3ccc(Br)cc3)ccc21`, which activation is on record?
The activation was 5.79% (inactive).

With `CC(C)(C)c1ccc(OCCCC(=O)N2CCOCC2)cc1` as the compound, how does the activation read?
The activation was 304%.
